Results on 3 molecules are retold here after ChEMBL document CHEMBL6103658, “Designing Macrocyclic Kinase Inhibitors Using Macrocycle Scaffold Hopping with Reinforced Learning (Macro-Hop)” (J Med Chem, 2025).

What is called IC50 is the concentration that inhibits the measured activity by half.

Data set [1] in a line: cells. The following applies: Mus musculus, BaF3, 72 h.
The nature of data set [2]: Induction of apoptosis in mouse BaF3 cells expressing PDGFR-alpha D842V mutant (unknown origin) assessed as early apoptotic cells at 1000 nM incubated for 48 hrs by V-PE/7-AAD staining based flow cytometry (reference value: 4.20 %). The format is functional.
Data set [3] can be described thus: Induction of cell cycle arrest in mouse BaF3 cells expressing PDGFR-alpha D842V mutant (unknown origin) assessed as accumulation at G0/G1 phase at 200 nM incubated for 24 hrs by PI staining based flow cytometry (reference value: 51.77 %). It is filed as functional. Background: Flow cytometry measures light scatter and fluorescence of single cells or particles in a stream.

Data set [4] deals with BaF3. The settings on record: Mus musculus, dose <= 1000.0 nM.
Data set [5] in a line: Induction of apoptosis in mouse BaF3 cells expressing PDGFR-alpha D842V mutant (unknown origin) assessed as early apoptotic cells at 40 nM incubated for 48 hrs by V-PE/7-AAD staining based flow cytometry (reference value: 4.20 %). The format is functional.
Data set [6] can be described thus: Induction of cell cycle arrest in mouse BaF3 cells expressing PDGFR-alpha D842V mutant (unknown origin) assessed as accumulation at G0/G1 phase at 1000 nM incubated for 24 hrs by PI staining based flow cytometry (reference value: 51.77 %). It is filed as functional.
Data set [7] in a line: Induction of apoptosis in mouse BaF3 cells expressing PDGFR-alpha D842V mutant (unknown origin) assessed as necrotic cells at 1000 nM incubated for 48 hrs by V-PE/7-AAD staining based flow cytometry (reference value: 0.75 %). It is filed as functional.
Data set [8] can be described thus: Induction of cell cycle arrest in mouse BaF3 cells expressing PDGFR-alpha D842V mutant (unknown origin) assessed as accumulation at G2/M phase at 200 nM incubated for 24 hrs by PI staining based flow cytometry (reference value: 34.85 %). It is filed as functional.
A short description of data set [9]: Induction of cell cycle arrest in mouse BaF3 cells expressing PDGFR-alpha D842V mutant (unknown origin) assessed as accumulation at S phase at 1000 nM incubated for 24 hrs by PI staining based flow cytometry (reference value: 12.00 %). The format is functional.
Data set [10] is described as follows: Induction of apoptosis in mouse BaF3 cells expressing PDGFR-alpha D842V mutant (unknown origin) assessed as late apoptotic cells at 40 nM incubated for 48 hrs by V-PE/7-AAD staining based flow cytometry (reference value: 2.77 %). It is filed as functional.
The nature of data set [11]: Induction of cell cycle arrest in mouse BaF3 cells expressing PDGFR-alpha D842V mutant (unknown origin) assessed as accumulation at S phase at 200 nM incubated for 24 hrs by PI staining based flow cytometry (reference value: 12.00 %). The format is functional.
Data set [12] in a line: Induction of apoptosis in mouse BaF3 cells expressing PDGFR-alpha D842V mutant (unknown origin) assessed as early apoptotic cells at 200 nM incubated for 48 hrs by V-PE/7-AAD staining based flow cytometry (reference value: 4.20 %). It is filed as functional.
Data set [13] in a line: cells. The settings on record: Mus musculus, BaF3, 72 h. This is another data set of the same source.
A short description of data set [14]: Induction of apoptosis in mouse BaF3 cells expressing PDGFR-alpha D842V mutant (unknown origin) assessed as late apoptotic cells at 1000 nM incubated for 48 hrs by V-PE/7-AAD staining based flow cytometry (reference value: 2.77 %). The format is functional.
Data set [15] can be described thus: Induction of cell cycle arrest in mouse BaF3 cells expressing PDGFR-alpha D842V mutant (unknown origin) assessed as accumulation at G2/M phase at 1000 nM incubated for 24 hrs by PI staining based flow cytometry (reference value: 34.85 %). The format is functional.
The nature of data set [16]: Inhibition of cell viability of HEK293T cells incubated for 72 hrs by CCK8 assay. It is filed as toxicity, cell-based, HEK-293T. The following applies: human.
Data set [17] can be described thus: Induction of apoptosis in mouse BaF3 cells expressing PDGFR-alpha D842V mutant (unknown origin) assessed as necrotic cells at 200 nM incubated for 48 hrs by V-PE/7-AAD staining based flow cytometry (reference value: 0.75 %). It is filed as functional.
Data set [18] can be described thus: Induction of cell cycle arrest in mouse BaF3 cells expressing PDGFR-alpha D842V mutant (unknown origin) assessed as accumulation at G2/M phase at 40 nM incubated for 24 hrs by PI staining based flow cytometry (reference value: 34.85 %). It is filed as functional.
Data set [19] in a line: Induction of apoptosis in mouse BaF3 cells expressing PDGFR-alpha D842V mutant (unknown origin) assessed as necrotic cells at 40 nM incubated for 48 hrs by V-PE/7-AAD staining based flow cytometry (reference value: 0.75 %). It is filed as functional.
Data set [20] is described as follows: Induction of apoptosis in mouse BaF3 cells expressing PDGFR-alpha D842V mutant (unknown origin) assessed as viable cells at 40 nM incubated for 48 hrs by V-PE/7-AAD staining based flow cytometry (reference value: 92.28 %). It is filed as functional. The following applies: read-out: Activity.
Data set [21] in a line: Induction of apoptosis in mouse BaF3 cells expressing PDGFR-alpha D842V mutant (unknown origin) assessed as viable cells at 1000 nM incubated for 48 hrs by V-PE/7-AAD staining based flow cytometry (reference value: 92.28 %). The settings on record: read-out: Activity. It is filed as functional.
Data set [22] is described as follows: Induction of cell cycle arrest in mouse BaF3 cells expressing PDGFR-alpha D842V mutant (unknown origin) assessed as accumulation at G0/G1 phase at 40 nM incubated for 24 hrs by PI staining based flow cytometry (reference value: 51.77 %). The format is functional.
The nature of data set [23]: Induction of apoptosis in mouse BaF3 cells expressing PDGFR-alpha D842V mutant (unknown origin) assessed as viable cells at 200 nM incubated for 48 hrs by V-PE/7-AAD staining based flow cytometry (reference value: 92.28 %). It is filed as functional. The settings on record: read-out: Activity.
Data set [24] can be described thus: Induction of cell cycle arrest in mouse BaF3 cells expressing PDGFR-alpha D842V mutant (unknown origin) assessed as accumulation at S phase at 40 nM incubated for 24 hrs by PI staining based flow cytometry (reference value: 12.00 %). It is filed as functional.
Data set [25] can be described thus: Induction of apoptosis in mouse BaF3 cells expressing PDGFR-alpha D842V mutant (unknown origin) assessed as late apoptotic cells at 200 nM incubated for 48 hrs by V-PE/7-AAD staining based flow cytometry (reference value: 2.77 %). It is filed as functional.
Data set [26] concerns the target T1, Platelet-derived growth factor receptor alpha (Homo sapiens, UniProt P16234, D842V). As to the kind of experiment: Inhibition of PDGFR-alpha D842V mutant (unknown origin) expressed in mouse BaF3 cells. It is filed as cell-based.
For data set [27], the target named is T1, Platelet-derived growth factor receptor alpha. As to the kind of experiment: Inhibition of PDGFR-alpha D842V mutant (unknown origin) using Tyr 04 peptide as substrate incubated for 1 hr in presence of ATP by FRET-based Z'-Lyte assay.

T1 sequence (P16234 24-1089 D842V limits assumed): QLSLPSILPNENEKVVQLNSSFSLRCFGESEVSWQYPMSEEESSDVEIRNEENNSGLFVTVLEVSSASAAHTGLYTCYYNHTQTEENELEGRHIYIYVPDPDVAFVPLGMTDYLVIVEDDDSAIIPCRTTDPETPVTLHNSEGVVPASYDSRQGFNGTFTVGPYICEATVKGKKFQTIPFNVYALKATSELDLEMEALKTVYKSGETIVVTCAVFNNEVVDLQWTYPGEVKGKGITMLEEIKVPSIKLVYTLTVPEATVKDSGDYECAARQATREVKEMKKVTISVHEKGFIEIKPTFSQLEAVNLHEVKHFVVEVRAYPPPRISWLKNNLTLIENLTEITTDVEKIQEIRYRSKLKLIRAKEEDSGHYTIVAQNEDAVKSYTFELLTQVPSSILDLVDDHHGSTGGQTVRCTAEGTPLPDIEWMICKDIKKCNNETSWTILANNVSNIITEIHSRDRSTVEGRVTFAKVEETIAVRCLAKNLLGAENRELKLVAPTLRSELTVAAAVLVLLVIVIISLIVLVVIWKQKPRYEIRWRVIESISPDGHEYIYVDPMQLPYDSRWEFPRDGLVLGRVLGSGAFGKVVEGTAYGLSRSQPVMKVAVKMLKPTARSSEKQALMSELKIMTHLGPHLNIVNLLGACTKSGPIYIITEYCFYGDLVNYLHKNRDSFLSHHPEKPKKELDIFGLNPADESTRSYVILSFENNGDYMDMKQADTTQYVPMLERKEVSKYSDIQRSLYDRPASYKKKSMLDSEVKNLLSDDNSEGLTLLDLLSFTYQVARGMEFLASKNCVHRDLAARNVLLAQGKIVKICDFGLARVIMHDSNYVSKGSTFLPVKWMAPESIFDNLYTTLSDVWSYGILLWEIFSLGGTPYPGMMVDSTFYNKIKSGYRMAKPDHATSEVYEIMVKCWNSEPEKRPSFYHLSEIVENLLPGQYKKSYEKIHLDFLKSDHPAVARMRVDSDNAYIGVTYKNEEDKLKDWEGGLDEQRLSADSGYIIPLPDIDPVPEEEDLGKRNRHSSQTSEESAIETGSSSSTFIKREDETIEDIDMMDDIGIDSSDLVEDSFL

Consider `c1cc2c3nc(ccc3c1)-n1cnc3ccc(cc31)OCCNC1CCN2CC1`, for which the IC50 was 64.1 nM in [1] and 27.6 nM in data set [13]. In addition, the Activity in [2] is reported as 24.41%; in [3], 60.03%; in data set [5] it was 3.2%; in data set [6], 65.32%; in data set [7], 0.07%; in [8], 31.42%. For the same molecule, the Activity is 7.21% in [9]; 2.23% in data set [10]; 7.5% in data set [11]; 8.22% in data set [12]; 6.67% in data set [14]; 26.13% in data set [15]. The Activity in data set [17] is on record as 0.14%; in [18], 34.25%; in [19] it was 0.06%; in [22] it was 54.31%; in [24] it was 9.94%; in data set [25], 2.27%. Further, the inhibition result in data set [4] is “Not active; Less Pronounced As Compared To Avapritinib”. In [16], this molecule returned a 50% inhibitory concentration (IC50) at 72 h of 1050 nM. Besides, the viability at 0.04 µM in [20] is 94.5%. The viability at 1 µM in data set [21] was determined as 68.8%. Also, the viability at 0.2 µM in [23] is 89.4%.
As for `Clc1cnc2nc1N1CCC(CC1)NCCCOc1ccc3ncn-2c3c1`, the results for the IC50 in data set [26] and in [27] were above 1000 nM and above 10000 nM, respectively.
Consider `CC1(COc2ccc3c(c2)ncn3-c2ccc3cccc(N4CCC(N)CC4)c3n2)COC1` [CRENOLANIB], for which the values for the 50% inhibitory concentration (IC50) in data set [1] and in data set [13] were 407 nM and 23.7 nM, respectively. Also, the midpoint of inhibition in data set [16], the IC50 at 72 h, lay at 1680 nM.
